Measured values: publication PMC5063576, “High Potency VEGFRs/MET/FMS Triple Blockade by TAS-115 Concomitantly Suppresses Tumor Progression and Bone Destruction in Tumor-Induced Bone Disease Model with Lung Carcinoma Cells” (PLoS ONE, 2016)

Legend:
[1] = tested on: A549-Luc-BM1-implanted tibia; assay: Bone morphometrical analyses by micro-CT; type: in vivo, BALB/c nude mice; settings: for A549-Luc-BM1-induced changes in bone parameters (BV, TV, BMD, vBMD): micro-CT after 4 weeks dosing, TAS-115 200, cabozantinib 15, sunitinib 40, crizotinib 100 mg/kg oral, vs control
Experimental: On day 29, the mice were euthanized by cervical dislocation under isoflurane anesthesia, and subsequently the A549-Luc-BM1-implanted tibia was removed and was fixed in 4% paraformaldehyde solution. Micro-CT imaging was performed by using Rm_CT2 (Rigaku corporation, Tokyo, Japan) with the following parameters: 90 kV, 160 μA, 3 min exposure, 10 mm field of view (20 μm voxel size). After scanning, 3D reconstruction was performed to produce a series of cross-sectional images by using specific software (3D Viewer Version 3.00.01, Rigaku corporation). In addition, bone mineral density (BMD) and 3D morphometrical primary parameters, including total volume (TV) and bone volume (BV), were calculated by using bone microstructure software (TRI/3D-BON-FCS64, Ratoc System Engineering, Tokyo, Japan). Volumetric BMD (vBMD), which has been reported to be a good index of osteoporosis, was calculated from primary parameters using the following formula: vBMD = BMD × BV / TV.

[2] = tested on: A549-Luc-BM1 cells in the mouse tibia; assay: Tumor-induced bone disease model, intra-tibial A549-Luc-BM1, bioluminescence imaging; type: in vivo, BALB/c nude mice; settings: for tumor growth inhibition percentage (TGI): day 28, 4 weeks, oral once daily TAS-115 200 mg/kg, cabozantinib 15 mg/kg, sunitinib 40 mg/kg, crizotinib 100 mg/kg, ZA 0.2 mg/kg s.c. twice weekly
Experimental: Tumor growth in the tibiae was monitored by bioluminescence imaging using an IVIS Lumina II Imaging System (PerkinElmer, MA). […] Images were analyzed using the Living Image 3.1 software (PerkinElmer). Total photon flux (TP) was calculated by summation of the photon flux of ventral and right lateral images. One week post tumor implantation, 8–9 animals were allocated to each experimental group by a stratified randomization method with SAS version 9.2 (SAS Institute Japan, Tokyo, Japan) using TP as an allocation parameter, following which drug treatment was then started. […] The doses of each drug were selected based on the maximum tolerated dose (MTD) in in-house studies (data not shown). […] Zoledronic acid (ZA) was subcutaneously injected twice weekly for 4 weeks at a dose of 0.2 mg/kg, which was a previously reported efficacious dose. The allocation day was set as day 0, and drug administration was initiated from day 1. As an indicator of changes in tumor growth during the dosing period, relative total photon flux (RTP), was calculated according to the following formula: RTPday n = (TP on each measurement day) / (TPday 0) × 100. TPday 0 is the TP on the allocation day.

[3] = tested on: FMS, ERK1/2 and AKT phosphorylation in MDBMs; assay: In vitro MDBM signaling, M-CSF-stimulated FMS phosphorylation; type: cell-based, mouse; settings: Western blotting, cabozantinib, crizotinib at 0.3 μM, sunitinib positive control compared with TAS-115
Experimental: For analysis of the expression and phosphorylation levels of FMS, MET and VEGFR2, MDBMs were cultured with hM-CSF (20000 U/mL) for 4 days (400000 cells/dish in Suspension Culture Dishes (Corning Inc., NY). The phosphorylation levels of FMS and downstream signaling molecules were then analyzed in these MDBMs following incubation for 1 hr with test compounds at the indicated concentration. The phosphorylation of MET or VEGFR2 was analyzed in these MDBMs following stimulation with rhHGF (100 ng/mL, 10 min) or rhVEGF (100 ng/mL, 5 min), respectively. After incubation, the MDBMs were harvested, the cells were lysed and target signaling proteins were detected by immunoblotting. For analysis of VEGFR2 and its phosphorylated form, the lysate was immunoprecipiated with an anti-VEGFR antibody prior to immunoblotting.

[4] = tested on: TRAP-positive osteoclasts at tumor-bone boundary; assay: TRAP staining of A549-Luc-BM1-implanted tibiae, osteoclast number; type: in vivo, BALB/c nude mice; settings: 2 weeks oral; TAS-115 200, cabozantinib 15, sunitinib 40, crizotinib 100 mg/kg, combination; vs control
Experimental: On day 15, the mice were euthanized by cervical dislocation under isoflurane anesthesia, and their tibiae were collected. For CD31 staining, frozen sections (3 μm thick) were prepared using Kawamoto’s film method. Purified Rat Anti-Mouse CD31 (1:100, BD Pharmingen^TM) was detected using Simple Stain^TM Mouse MAX PO (Rat) (Nichirei) and 3,3’-diaminobenzidine (Dako, Glostrup, Denmark). For Ki-67 and TRAP staining, formalin-fixed paraffin-embedded sections (2 μm thick) were prepared. Anti-human Ki-67 Rabbit Monoclonal Antibody (1:50, Epitomics) was detected using the EnVisionTM^+ System (Dako). TRAP staining was performed using the TRAP/ALP Stain Kit (Wako Pure chemical Industries, Ltd.). To quantify each staining, whole slides were scanned under 20× magnification with the Aperio Scan-Scope XT Slide Scanner (Aperio Technologies, Inc., CA). To quantify CD31-positive microvessels as microvessel density (MVD, number/mm^2), four fields of tumor area per section excluding bone and necrotic tissue were analyzed by using Image-Pro Plus (Media Cybernetics, Inc., Carlsbad, CA). […] Ki-67-positive cells and total tumor cells were counted by using Image-Pro Plus. The Ki-67 index is expressed as a percentage (the number of Ki-67-positive tumor cells / the total number of the tumor cells × 100). […] The boundary length was calculated by Image-Pro Plus. […]

[5] = tested on: A549-Luc-BM1-implanted tibiae; assay: CD31 staining, microvessel density in bone lesion; type: in vivo, BALB/c nude mice; settings: 2 weeks oral; TAS-115 100 mg/kg, cabozantinib 15, crizotinib 100, sunitinib 40 mg/kg; vs control
Experimental: On day 15, the mice were euthanized by cervical dislocation under isoflurane anesthesia, and their tibiae were collected. For CD31 staining, frozen sections (3 μm thick) were prepared using Kawamoto’s film method. Purified Rat Anti-Mouse CD31 (1:100, BD Pharmingen^TM) was detected using Simple Stain^TM Mouse MAX PO (Rat) (Nichirei) and 3,3’-diaminobenzidine (Dako, Glostrup, Denmark). For Ki-67 and TRAP staining, formalin-fixed paraffin-embedded sections (2 μm thick) were prepared. Anti-human Ki-67 Rabbit Monoclonal Antibody (1:50, Epitomics) was detected using the EnVisionTM^+ System (Dako). TRAP staining was performed using the TRAP/ALP Stain Kit (Wako Pure chemical Industries, Ltd.). To quantify each staining, whole slides were scanned under 20× magnification with the Aperio Scan-Scope XT Slide Scanner (Aperio Technologies, Inc., CA). To quantify CD31-positive microvessels as microvessel density (MVD, number/mm^2), four fields of tumor area per section excluding bone and necrotic tissue were analyzed by using Image-Pro Plus (Media Cybernetics, Inc., Carlsbad, CA). The mean values of the four areas were considered as the MVD of each animal. […] Ki-67-positive cells and total tumor cells were counted by using Image-Pro Plus. The Ki-67 index is expressed as a percentage (the number of Ki-67-positive tumor cells / the total number of the tumor cells × 100). The numbers of TRAP-positive osteoclasts were counted, and are expressed as the TRAP-positive osteoclast labeling index, (the number of TRAP-positive cells / the length of the boundary between tumor and trabecular bone (number/mm)). Cells that were TRAP-positive, had more than one nucleus, and were found on the surface of the bone, were identified as osteoclasts. The boundary length was calculated by Image-Pro Plus. All histopathological analyses were conducted in a blinded manner.

[6] = target: T1, Recombinant human FMS dephosphorylated with lambda phosphatase (dephospho-rhFMS) (Homo sapiens, UniProt P07333); assay: In vitro kinase assay, recombinant dephospho-FMS (LANCE Ultra TR-FRET); type: biochemical; settings: 100 μM ATP
T1 sequence (P07333 538-972): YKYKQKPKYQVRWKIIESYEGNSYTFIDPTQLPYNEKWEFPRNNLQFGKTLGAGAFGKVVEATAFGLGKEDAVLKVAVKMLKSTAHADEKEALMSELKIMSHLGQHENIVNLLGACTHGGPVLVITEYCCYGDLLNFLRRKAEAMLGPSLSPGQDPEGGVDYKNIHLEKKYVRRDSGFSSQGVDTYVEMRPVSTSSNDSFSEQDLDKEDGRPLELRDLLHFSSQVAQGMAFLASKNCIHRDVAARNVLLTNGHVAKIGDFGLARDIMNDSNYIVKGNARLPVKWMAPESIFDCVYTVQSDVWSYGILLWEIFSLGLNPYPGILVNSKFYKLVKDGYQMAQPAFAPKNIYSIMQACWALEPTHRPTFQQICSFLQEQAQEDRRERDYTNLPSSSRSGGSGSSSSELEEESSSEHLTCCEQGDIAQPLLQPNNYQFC
Experimental: Enzyme inhibition studies were performed using LANCE® Ultra TR-FRET assay technology. Briefly, 0.03 μg/mL dephospho-rhFMS and 100 nM ULightTM-poly GT (4:1) (PerkinElmer) were mixed and incubated for 40 min at 25°C in 10 μL of reaction mixture containing 100 μM ATP, 15 mM tris (hydroxymethyl) aminomethane (Tris (pH 7.5)), 0.01% (v/v) Tween 20, 5 mM MgCl2, 2 mM dithiothreitol and various concentrations of the test compound. […] By referring to the TR-FRET signals of positive (no inhibitor) and negative (EDTA was added before the reaction was started) control wells, the percent inhibition of each well was calculated and the half-maximal inhibitory concentration (IC50) value was determined using a four-parameter sigmoidal equation. The assay of MET and VEGFR2 kinase activity was performed as described previously.

[7] = Body weight change in the bone disease model; type: in vivo, BALB/c nude mice; settings: 4 weeks of treatment; TAS-115 200 mg/kg, crizotinib 100 mg/kg, sunitinib 40 mg/kg with crizotinib 100 mg/kg, oral once daily
Experimental: Changes in body weight (BW) during the dosing period were determined using body weight change (BWC; %) as an indicator, which was calculated using the following formula: BWC; % = 100 × ((BW on each measurement day)–(BWday 0)) / (BWday 0). BWday 0 is the BW on the allocation day. The schedule for the in vivo study is depicted in the Supporting Information (S1 Fig).

[8] = tested on: M-CSF dependent bone marrow macrophages (MDBMs); assay: In vitro osteoclast differentiation assay (TRAP activity); type: cell-based, mouse; settings: MDBMs with hM-CSF and rhsRANKL for 4 days
Experimental: To prepare macrophage colony-stimulating factor (M-CSF) dependent bone marrow macrophages (MDBMs), bone marrow cells were obtained from the femurs of male BALB/c mice (CLEA Japan) and adherent cells were cultured with human M-CSF (hM-CSF; 10000 U/mL) for 6 days. MDBMs were collected and cultured with hM-CSF (10000 U/mL) and recombinant human soluble RANKL (rhsRANKL)-GST (5 nM) for 4 days (25000 cells/well in a 96 well flat plate) for induction of differentiation into osteoclasts. Test compounds were then added to the culture media at the indicated concentration. TRAP activities were measured using the commercially available TRACP and ALP Assay Kit (TAKARA BIO INC).

A549-Luc-BM1 cells = assay: Proliferation of A549-Luc-BM1 cells (CellTiter-Glo); type: cell-based; settings: Homo sapiens, 72 hr post drug addition, read-out: 50% growth inhibitory concentration (GI50) for A549-Luc-BM1 cells
Experimental: Supplementary file pone.0164830.s002.tif: S2 Fig The effect of TAS-115 on the proliferation of A549-Luc-BM1 cells. A549-Luc-BM1 cells were seeded on 96 well plates at a density of 10^3 cells/well in RPMI1640 containing 10% FBS. […] At 72 hr post drug addition, cell viability was determined using CellTiter-Glo^TM. The 50% growth inhibition (GI50) values were determined using SAS version 9.2. (TIF) Click here for additional data file.

Row | IC50 [6] [nM] | GI50 (A549-Luc-BM1 cells) [nM] | SMILES | A549-Luc-BM1-induced changes in bone parameters (BV, TV, BMD, vBMD) [1] | tumor growth inhibition percentage (TGI) [2] [%] | inhibition of M-CSF-stimulated phosphorylation of FMS, ERK1/2 and AKT (in words) [3] | number of TRAP-positive osteoclasts at tumor-bone boundary [4] | microvessel density (MVD) within the tumor area in the bone lesion [5] | effect on tumor growth in the tibia (bioluminescence) ([2]; crizotinib 100 mg/kg oral once daily for 4 weeks) | effect on body weight [7] | concentration that potently inhibited / markedly affected RANKL and M-CSF-induced mouse osteoclast formation [8] [µM] | total volume (TV) compared with the control group ([1]; micro-CT, ZA 0.2 mg/kg s.c. twice weekly for 4 weeks) | BMD, BV, and vBMD compared with control ([1]; micro-CT, ZA 0.2 mg/kg s.c. twice weekly for 4 weeks, each value higher than normal group)
1 | 79 | – | COc1cc2nccc(Oc3ccc(NC(=O)C4(C(=O)Nc5ccc(F)cc5)CC4)cc3)c2cc1OC [Cabozantinib] | significantly suppressed all of the changes | 73 | moderate | did not affect | significantly reduced | – | – | – | – | –
2 | – | 1100 | C[C@@H](Oc1cc(-c2cnn(C3CCNCC3)c2)cnc1N)c1c(Cl)ccc(F)c1Cl [Crizotinib] | did not affect any changes in the parameters | – | moderate | – | did not affect | did not impact on tumor growth at all | did suppress body weight gain | 1 | – | –
3 | – | – | O=P(O)(O)C(O)(Cn1ccnc1)P(=O)(O)O [ZA, zoledronic acid] | – | 27 | – | – | – | – | – | – | significantly decreased | significantly increased
4 | – | – | CCN(CC)CCNC(=O)c1c(C)[nH]c(/C=C2\C(=O)Nc3ccc(F)cc32)c1C [Sunitinib] | significantly inhibited A549-Luc-BM1-induced changes in BV and TV, but not in BMD or vBMD | 75 | comparable | – | significantly reduced | – | – | – | – | –
